We go through 18 molecules from patent US9663530B2, “5-oxa-2-azabicyclo[2.2.2]OCTAN-4-yl and 5-oxa-2-azabicyclo[2.2.1]heptan-4-yl derivatives” (Hoffmann-La Roche Inc., priority 2014, dated 2017).

One experiment has as its target rat TAAR1 (Rattus norvegicus (Rat), UniProt Q923Y9). The experiment is described as follows: Radioligand binding assay on rat TAAR1. The note with it: for Ki: rat TAAR1 (second value of the cell), membranes of HEK-293 cells stably expressing rat TAAR1, read-out: Ki (μM) mouse/rat. In a few lines: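 Membranes from HEK293 cells stably expressing rat TAAR1 were incubated 1 h at 4 °C, in duplicate, with the tritiated oxazol-2-ylamine radioligand added at 3.3×Kd (Kd set per membrane batch by saturation). Buffer was 20 mM HEPES-NaOH pH 7.4, 10 mM MgCl2, 2 mM CaCl2; filtration and scintillation counting followed. […]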

The next experiment concerns the target mouse TAAR1 (Mus musculus (Mouse), UniProt Q923Y8). The experiment is described as follows: Radioligand binding assay on mouse TAAR1. Particulars: for Ki: mouse TAAR1 (first value of the cell), membranes of HEK-293 cells stably expressing mouse TAAR1, read-out: Ki (μM) mouse/rat.

pKd: −log10 of the molar value.

Chain of mouse TAAR1 (Q923Y8 whole entry): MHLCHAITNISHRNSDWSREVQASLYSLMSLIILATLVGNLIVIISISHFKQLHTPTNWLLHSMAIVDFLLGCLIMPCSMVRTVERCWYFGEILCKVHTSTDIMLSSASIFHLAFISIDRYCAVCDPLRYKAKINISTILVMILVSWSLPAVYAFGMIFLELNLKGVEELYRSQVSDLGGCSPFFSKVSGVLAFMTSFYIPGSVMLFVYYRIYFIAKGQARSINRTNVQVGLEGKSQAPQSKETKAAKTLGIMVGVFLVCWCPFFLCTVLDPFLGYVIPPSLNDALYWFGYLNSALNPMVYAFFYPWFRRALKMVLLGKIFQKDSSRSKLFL
Chain of rat TAAR1 (Q923Y9 whole entry): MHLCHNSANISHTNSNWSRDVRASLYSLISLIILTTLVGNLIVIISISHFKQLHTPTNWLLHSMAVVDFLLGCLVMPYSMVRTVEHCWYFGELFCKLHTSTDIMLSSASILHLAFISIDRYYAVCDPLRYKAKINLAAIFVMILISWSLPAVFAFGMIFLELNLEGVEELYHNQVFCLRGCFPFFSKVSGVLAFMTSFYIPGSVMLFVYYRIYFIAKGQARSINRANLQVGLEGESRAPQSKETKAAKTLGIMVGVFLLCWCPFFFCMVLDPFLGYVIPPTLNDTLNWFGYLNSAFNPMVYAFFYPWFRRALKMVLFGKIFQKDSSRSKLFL

Turning to `FC(F)(F)c1cnc(Nc2ccc(C34CCC(CO3)NC4)cc2)nc1` (racemic) [Example 65, (RS)—N-[4-(5-Oxa-2-azabicyclo[2.2.2]octan-4-yl)phenyl]-5-(trifluoromethyl)pyrimidin-2-amine], the Ki on rat TAAR1 turned out to be 3.84 µM; on mouse TAAR1, 0.122 µM.

As for `Clc1ccc(Nc2ccc(C[C@@]34CN[C@@H](CO3)C4)cc2)nc1` [Example 42, 5-Chloro-N-[4-[[(1R,4R)-5-oxa-2-azabicyclo[2.2.1]heptan-4-yl]methyl]phenyl]pyridin-2-amine], the Ki worked out at 0.355 µM on rat TAAR1 and 0.0158 µM on mouse TAAR1.

As to `O=C(Nc1ccc([C@@]23CN[C@@H](CO2)C3)cc1)c1cccc(Cl)c1` [Example 55, 3-Chloro-N-[4-[(1R,4S)-5-oxa-2-azabicyclo[2.2.1]heptan-4-yl]phenyl]benzamide], the Ki was 0.964 µM on rat TAAR1 and 0.0036 µM at mouse TAAR1.

In the case of `O=C(Nc1ccc(C23CCC(CO2)NC3)cc1)c1ccc(Cl)cc1` (racemic) [Example 5, (RS)-4-Chloro-N-[4-(5-oxa-2-azabicyclo[2.2.2]octan-4-yl)phenyl]benzamide], the Ki on rat TAAR1 was found to be 0.662 µM; at mouse TAAR1 it was 0.0028 µM.

With `O=C(Nc1ccc([C@@]23CN[C@@H](CO2)C3)cc1)c1ccnc(C(F)(F)F)c1` [Example 57], the figures for the Ki at rat TAAR1 and at mouse TAAR1 were 1.91 µM and 0.0593 µM, respectively.

For `O=C(Nc1ccc(Cl)cc1)Nc1ccc(C[C@@]23CN[C@@H](CO2)C3)cc1` [Example 23, 1-(4-Chlorophenyl)-3-[4-[[(1R,4R)-5-oxa-2-azabicyclo[2.2.1]heptan-4-yl]methyl]phenyl]urea], the Ki worked out at 0.0375 µM on rat TAAR1 and 0.0137 µM at mouse TAAR1.

Consider `O=C(Nc1ccc([C@]23CN[C@H](CO2)C3)cc1)c1cccc(Cl)c1` [Example 59, 3-Chloro-N-[4-[(1S,4R)-5-oxa-2-azabicyclo[2.2.1]heptan-4-yl]phenyl]benzamide], for which the Ki on rat TAAR1 was 0.0774 µM; on mouse TAAR1, 0.0054 µM.

As to `O=C(Nc1ccc(C[C@@]23CN[C@@H](CO2)C3)cc1)Nc1cccc(Cl)c1` [Example 24, 1-(3-Chlorophenyl)-3-[4-[[(1R,4R)-5-oxa-2-azabicyclo[2.2.1]heptan-4-yl]methyl]phenyl]urea], the Ki at rat TAAR1 turned out to be 0.0614 µM; on mouse TAAR1, 0.0086 µM.

Take `Clc1ccc(Nc2ccc([C@@]34CN[C@@H](CO3)C4)cc2)nc1` [Example 20, 5-Chloro-N-[4-[(1R,4S)-5-oxa-2-azabicyclo[2.2.1]heptan-4-yl]phenyl]pyridin-2-amine]: the Ki is 1.78 µM on rat TAAR1 and 0.0062 µM on mouse TAAR1.

Turning to `O=C(Nc1ccc(C[C@@]23CN[C@@H](CO2)C3)cc1)c1cccc(Cl)c1` [Example 39, 3-Chloro-N-[4-[[(1R,4R)-5-oxa-2-azabicyclo[2.2.1]heptan-4-yl]methyl]phenyl]benzamide], the Ki on rat TAAR1 came out at 0.0551 µM; on mouse TAAR1, 0.0022 µM.

Regarding `Clc1ccc(Nc2ccc(C[C@]34CN[C@H](CO3)C4)cc2)nc1` [Example 30, 5-Chloro-N-[4-[[(1S,4S)-5-oxa-2-azabicyclo[2.2.1]heptan-4-yl]methyl]phenyl]pyridin-2-amine], the Ki was determined as 0.621 µM on rat TAAR1 and 2.55 µM at mouse TAAR1.

As to `O=C(Nc1ccc(C[C@]23CN[C@H](CO2)C3)cc1)c1[nH]nc(C2CC2)c1Cl` [Example 29, 4-Chloro-3-cyclopropyl-N-[4-[[(1 S,4S)-5-oxa-2-azabicyclo[2.2.1]heptan-4-yl]methyl]phenyl]-1H-pyrazole-5-carboxamide], the Ki was 0.633 µM on rat TAAR1 and 0.476 µM on mouse TAAR1.

Consider `CCOc1ccc(C(=O)Nc2ccc(C34CCC(CO3)NC4)cc2)cc1` (stereo not drawn) [Example 53, 4-Ethoxy-N-[4-(5-oxa-2-azabicyclo[2.2.2]octan-4-yl)phenyl]benzamide], for which the values for the Ki at rat TAAR1 and at mouse TAAR1 were 1.98 µM and 0.0156 µM, respectively.

`O=C(Nc1ccc(C23CCC(CO2)NC3)cc1)c1ccc(OCC(F)(F)F)nc1` (racemic) [Example 13, (RS)—N-[4-(5-Oxa-2-azabicyclo[2.2.2]octan-4-yl)phenyl]-6-(2,2,2-trifluoroethoxy)pyridine-3-carboxamide]: the Ki was 0.624 µM at rat TAAR1 and 0.0304 µM at mouse TAAR1.

Consider `FC(F)(F)c1ccc(Nc2ccc(C34CCC(CO3)NC4)cc2)nc1` (racemic) [Example 4, (RS)—N-[4-(5-Oxa-2-azabicyclo[2.2.2]octan-4-yl)phenyl]-5-(trifluoromethyl)pyridin-2-amine], for which the Ki on rat TAAR1 worked out at 0.328 µM; at mouse TAAR1 it was 0.0111 µM.

In the case of `CC(C)c1cc(C(=O)Nc2ccc(C[C@]34CN[C@H](CO3)C4)cc2)[nH]n1` [Example 38, 3-Isopropyl-N-[4-[[(1S,4S)-5-oxa-2-azabicyclo[2.2.1]heptan-4-yl]methyl]phenyl]-1H-pyrazole-5-carboxamide], the Ki came out at 0.441 µM at rat TAAR1 and 10.1 µM at mouse TAAR1.

For `CCOc1ccc(C(=O)Nc2ccc(C[C@@]34CN[C@@H](CO3)C4)cc2)cn1` [Example 46, 6-Ethoxy-N-[4-[[(1R,4R)-5-oxa-2-azabicyclo[2.2.1]heptan-4-yl]methyl]phenyl]pyridine-3-carboxamide], the Ki was 0.448 µM at rat TAAR1 and 0.0142 µM on mouse TAAR1.

As for `CCN(C[C@H]1COC(N)=N1)c1ccccc1` [^3[H]-(S)-4-[(ethyl-phenyl-amino)-methyl]-4,5-dihydro-oxazol-2-ylamine, reference compound], the pKd was roughly 8.64 on rat TAAR1 (rat TAAR1 membranes, saturation curve, read-out: dissociation constant (Kd) of the TAAR1 radioligand) and roughly 9.15 on mouse TAAR1 (mouse TAAR1 membranes, saturation curve, read-out: dissociation constant (Kd) of the TAAR1 radioligand).
